Test results published in patent publication US20120022143A1, “RNA Interference Mediated Inhibition of the Thymic Stromal Lymphopoietin (TSLP) Gene Expression Using Short Interfering Nucliec Acid (siNA)” (Merck Sharp & Dohme Corp, priority 2009, published 2012).
[invAb] = inverted abasic unit; m = 2'-O-methyl; r = 2'-OH (RNA); f = 2'-fluoro

Key:
[1] = tested on: TSLP mRNA; test: Initial screening: TSLP mRNA knock-down by RT-PCR (Taqman) after RNAiMax transfection of NHLF cells; assay type: cell-based; conditions: 10 nM siNA, human NHLF cells, 24 hrs post-transfection, relative to non-targeting control, normalized to GAPDH; mean ± s.d. from 2 experiments
Protocol: (§1) All cells were obtained from ATCC (Manassas, Va.) unless otherwise indicated. Cells were grown and transfected under standard conditions, which are detailed below for each cell line.
NHLF (human; Lonza cat# CC-2512): Cells were cultured at 37° C. in the presence of 5% CO2 and grown Fibroblast Basal Medium (Lonza cat# CC-3β2) supplemented growth factors (provided with the kit) and 100 μg/mL of streptomycin and 100 U/mL penicillin.
(§2) All transfections were performed using RNAiMax (Invitrogen Cat# 13778-150) as per the manufacturer's instructions.
(§3) Both human and murine cell lines were transfected in the similar fashion. Cells were plated in all wells of a tissue-culture treated, 96-well plate at a final count of 5,000 cells/well in […], of appropriate culture media. Cells were cultured for 24 hours after plating at 37° C. in the presence of 5% CO2.
(§4) After 24 hours, complexes containing siNA and RNAiMax were created as follows: A solution of RNAiMax diluted 33-fold in OPTI-MEM was prepared. In parallel, solutions of the siNAs for testing were prepared to a final concentration of 120 nM in OPTI-MEM. After incubation of RNAiMax/OPTI-MEM solution at room temperature for 5 min, an equal volume of the siNA solution and the RNAiMax solution were added together for each of the siNAs.
(§5) This solution was incubated at room temperature for 20 minutes. After incubation, 20 uL of the solution was added to each of the relevant wells.
(§6) The final concentration of siNA in each well was 10 nM and the final volume of RNAiMax in each well was 0.3 ul.
(§7) The time of incubation with the RNAiMax-siNA complexes was 24 hours, unless otherwise indicated. There was no change in media between the transfection and harvesting of the cells unless otherwise indicated.
(§8) RNA was extracted from a 96-well plate using the TaqMan® Gene Expression Cells-to-CT™ Kit (Cat# 4399002) with a modified protocol. Briefly, a 60 uL (1 plate) or 110 uL (2 plates) of the Lysis Solution with DNase I was dispensed into each well of the Lysis Buffer Plate (twin.tec full skirt plate). The lysis buffer and stop plates were stored at 4° C. until the cells were washed.
(§9) The plate was spun at 1100 rpm for 5 minutes. The culture medium was aspirated and discarded from the wells of the culture plate. The lysis was performed automatically using a BioMek FX instrument and method. After the Biomek method was completed, the lysis plate was incubated for 2 min. at room temperature. The lysis plate can be stored for 2 hours at 4° C., or at −20° C. or −80° C. for two months.
(§10) Each well of the reverse transcription plate required 10 uL of 2× reverse transcriptase Buffer, luL of 20× reverse transcription enzyme and 2 uL of nuclease-free water. The reverse transcription master mix was prepared by mixing 2× reverse transcription buffer, 20× reverse transcription enzyme mix, and nuclease-free water. 13 uL of the reverse transcription master mix was dispensed into each well of the reverse transcription plate (semi-skirted). A separate reverse transcription plate was prepared for each cell plate. The plate was loaded onto a Biomek NX or Biomek FX Dual-96 and the Biomek method was run. The program is programmed to automatically added 7 uL of lysate from the cell lysis procedure described above into each well of the reverse transcription plate. The plate is sealed and spun on a centrifuge (1000 rpm for 30 seconds) to settle the contents to the bottom of the reverse transcription plate. The plate is placed in a thermocycler at 37° C. for 60 min, 95° C. for 5 min, and 4° C. until the plate is removed from the thermocycler. Upon removal, if not used immediately, the plate was frozen at −20° C.
A series of probes and primers were used to detect the various mRNA transcripts of the genes of TSLP, IL-8 and GAPDH in human cell lines. All the Taqman probes and primers for the experiments here-in described were supplied as pre-validated sets by Applied Biosystems, Inc. (see Table 2). […]

[2] = tested on: mTSLP mRNA; test: Initial screening: mouse TSLP mRNA knock-down by RT-PCR (Taqman) after RNAiMax transfection of NIH 3T3 cells; assay type: cell-based; conditions: 10 nM siNA, 24 hrs post-transfection, mean ± s.d., summary from 2 screens
Protocol: as §1
NIH 3T3 (murine; ATCC cat#CRL-1658): Cells were cultured at 37° C. in the presence of 5% CO2 and grown in Dulbecco's modified Eagle's medium (DMEM) with 4 mM L-glutamine adjusted to contain 1.5 g/L sodium bicarbonate and 4.5 g/L glucose and supplemented with fetal bovine serum at a final concentration of 10% and 100 μg/mL of streptomycin and 100 U/mL penicillin.
as §2, §3, §4, §5, §6, §7, §8, §9, §10
A series of probes and primers were used to detect the various mRNA transcripts of the genes of TSLP, IL-8 and GAPDH in human cell lines. […]

Substance	% KD TSLP [1]	% KD mTSLP NIH3T3 [2]
25463-DC: siNA duplex: sense B cGAGuAuuAuAcucucAAu TTB (SEQ ID NO: 109), antisense AUUGAGAGuAuAAuAcucGUU (SEQ ID NO: 110) (sense CGAGUAUUAUACUCUCAAUTT; antisense AUUGAGAGUAUAAUACUCGUU; sense: DNA at AGT, 2'-fluoro at CU, [invAb] at 5' end, 3' end, backbone not given here; antisense: sugars from the 5' end rrrmmmmmfmfmmfmfffmmm, backbone not given here)	19 ± 33.3%	41.5 ± 1.4%
25465-DC: siNA duplex: sense B cuGcuAuGAAAAucucuAu TTB (SEQ ID NO: 113), antisense AUAGAGAuuuucAuaGcAGUU (SEQ ID NO: 114) (sense CUGCUAUGAAAAUCUCUAUTT; antisense AUAGAGAUUUUCAUAGCAGUU; sense: DNA at AGT, 2'-fluoro at CU, [invAb] at 5' end, 3' end, backbone not given here; antisense: RNA at 1, 2, 3, 2'-O-methyl at 4, 5, 6, 7, 13, 16, 18, 19, 20, 21, 2'-fluoro at 8, 9, 10, 11, 12, 14, 17, other sugars and backbone not given here)	23 ± 4.8%	48.6 ± 2.2%
25469-DC: siNA duplex: sense B AAAuGGGAAAuGAGcAAuA TTB (SEQ ID NO: 121), antisense UAUuGcucAuuucccAuuuUU (SEQ ID NO: 122) (sense AAAUGGGAAAUGAGCAAUATT; antisense UAUUGCUCAUUUCCCAUUUUU; sense: DNA at AGT, 2'-fluoro at CU, [invAb] at 5' end, 3' end, backbone not given here; antisense: sugars from the 5' end rrrfmfffmffffffmfffmm, backbone not given here)	−1 ± 18.8%	−17.2 ± 17.9%
25456-DC: siNA duplex: sense B uccuGAAAAucGAGuAuuA TTB (SEQ ID NO: 95), antisense UAAuAcucGAuuuucAGGAUU (SEQ ID NO: 96) (sense UCCUGAAAAUCGAGUAUUATT; antisense UAAUACUCGAUUUUCAGGAUU; sense: DNA at AGT, 2'-fluoro at CU, [invAb] at 5' end, 3' end, backbone not given here; antisense: sugars from the 5' end rrrfmfffmmfffffmmmmmm, backbone not given here)	23 ± 1.1%	53.3 ± 0.3%
25454-DC: siNA duplex: sense B AAuuuAuuuuGuGAAcAcu TTB (SEQ ID NO: 91), antisense AGUGuucAcAAAAuAAAuuUU (SEQ ID NO: 92) (sense AAUUUAUUUUGUGAACACUTT; antisense AGUGUUCACAAAAUAAAUUUU; sense: DNA at AGT, 2'-fluoro at CU, [invAb] at 5' end, 3' end, backbone not given here; antisense: sugars from the 5' end rrrmfffmfmmmmfmmmffmm, backbone not given here)	63 ± 16.9%	30.7 ± 22.5%
25464-DC: siNA duplex: sense B ccAGAAuAAAAuuAGcuuu TTB (SEQ ID NO: 111), antisense AAAGcuAAuuuuAuucuGGUU (SEQ ID NO: 112) (sense CCAGAAUAAAAUUAGCUUUTT; antisense AAAGCUAAUUUUAUUCUGGUU; sense: DNA at AGT, 2'-fluoro at CU, [invAb] at 5' end, 3' end, backbone not given here; antisense: sugars from the 5' end rrrmffmmffffmffffmmmm, backbone not given here)	3 ± 39%	89.2 ± 1.1%
25433-DC: siNA duplex: sense B cGcucGccAAAGAAAuGuu TTB (SEQ ID NO: 49), antisense AACAuuucuuuGGcGAGcGUU (SEQ ID NO: 50) (sense CGCUCGCCAAAGAAAUGUUTT; antisense AACAUUUCUUUGGCGAGCGUU; sense: DNA at AGT, 2'-fluoro at CU, [invAb] at 5' end, 3' end, backbone not given here; antisense: sugars from the 5' end rrrmfffffffmmfmmmfmmm, backbone not given here)	36 ± 25^ %	7.5 ± 3.3%
25462-DC: siNA duplex: sense B GGGcuAAGuucGAGcAAAu TTB (SEQ ID NO: 107), antisense AUUuGcucGAAcuuAGcccUU (SEQ ID NO: 108) (sense GGGCUAAGUUCGAGCAAAUTT; antisense AUUUGCUCGAACUUAGCCCUU; sense: DNA at AGT, 2'-fluoro at CU, [invAb] at 5' end, 3' end, backbone not given here; antisense: sugars from the 5' end rrrfmfffmmmfffmmfffmm, backbone not given here)	23 ± 16.4%	−9.5 ± 28.7%
25447-DC: siNA duplex: sense B uuuGuGAAcAcuuuuGAAA TTB (SEQ ID NO: 77), antisense UUUcAAAAGuGuucAcAAAUU (SEQ ID NO: 78) (sense UUUGUGAACACUUUUGAAATT; antisense UUUCAAAAGUGUUCACAAAUU; sense: DNA at AGT, 2'-fluoro at CU, [invAb] at 5' end, 3' end, backbone not given here; antisense: sugars from the 5' end rrrfmmmmmfmfffmfmmmmm, backbone not given here)	84 ± 4.6%	18.5 ± 3.8%
25442-DC: siNA duplex: sense B GGcAAGAGAuuGcAucAuA TTB (SEQ ID NO: 67), antisense UAUGAuGcAAucucuuGccUU (SEQ ID NO: 68) (sense GGCAAGAGAUUGCAUCAUATT; antisense UAUGAUGCAAUCUCUUGCCUU; sense: DNA at AGT, 2'-fluoro at CU, [invAb] at 5' end, 3' end, backbone not given here; antisense: sugars from the 5' end rrrmmfmfmmffffffmffmm, backbone not given here)	12 ± 27^ %	−70.9 ± 6.4%
25443-DC: siNA duplex: sense B GAGGAAGcuuAcAuuAcAu TTB (SEQ ID NO: 69), antisense AUGuAAuGuAAGcuuccucUU (SEQ ID NO: 70) (sense GAGGAAGCUUACAUUACAUTT; antisense AUGUAAUGUAAGCUUCCUCUU; sense: DNA at AGT, 2'-fluoro at CU, [invAb] at 5' end, 3' end, backbone not given here; antisense: sugars from the 5' end rrrfmmfmfmmmfffffffmm, backbone not given here)	43 ± 12.1%	16.7 ± 11.7%
